Data as given in the METLIN SMRT retention time set (Domingo-Almenara et al. 2019).

Assay: gradient 5% acetonitrile 3 min, to 50% in 2 min, to 85% in 15 min, held 3 min, 100 µL/min
Settings: column: Zorbax Extend-C18 2.1 x 50 mm; eluents: water / acetonitrile, 0.1% formic acid
In short: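 A Zorbax Extend-C18 column (2.1 × 50 mm, 1.8 μm) run at 100 μL/min with water and acetonitrile, both containing 0.1% formic acid, separated mixtures of ~100 pure standards. The HPLC was coupled to a quadrupole time-of-flight mass spectrometer operated in positive and negative ionization mode, with dead and dwell volumes of 40 μL and 900 μL. Each retention time was taken from a computationally picked adduct peak that was then manually inspected.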

SMILES	RP-LC retention time [s]
Cc1ccc(N2CCC(NC(=O)c3ccc(Br)o3)C2=O)cc1 (stereo not given)	812
CCS(=O)(=O)Nc1ccc(C2(C(=O)NCC(C)C)CCCCC2)cc1	879
COc1ccc(CNC(=O)c2ccc(N3CCCS3(=O)=O)cc2)cc1OC	652
NC(=O)c1cnc(-c2ccccc2)n(CC(=O)Nc2ccccc2Br)c1=O	740
CNC(=O)C1CCCN(C(=O)Nc2ccc(NC(=O)Nc3ccc(C)cc3)cc2)C1 (stereo not given)	883
Cn1cnc([N+](=O)[O-])c1Sc1nnnn1-c1ccccc1	715
COc1ccc(OCc2noc(CNC(=O)NCc3ccc(F)cc3)n2)cc1	770
CCCC1c2nccn2CCCN1C(=O)c1ccoc1C (stereo not given)	592
CC(C)Oc1ccc(CNC(=O)C2CCN(c3cnc4nccnc4c3)CC2)cc1	683
O=C(CN1CCN(Cc2ccccc2F)C1=O)NCc1cccc(Cl)c1	831
CCC(=O)N1CCc2cc(N3CC(C(=O)Nc4ccc(C)cc4C)CC3=O)ccc21 (stereo not given)	742
O=c1c(=O)n(-c2cccc(Cl)c2)ccn1Cc1nc(-c2ccc(F)cc2)no1	881
CCC(C(=O)NCCCN1CCCC1=O)n1c2ccccc2c2cnn(C)c(=O)c21 (stereo not given)	692
Cc1cnc(NC(=O)C2CN(c3nc4ccccc4s3)C2)s1	700
Cc1cc(C)c(S(=O)(=O)N2CCCCC2)c(C)c1N(C)S(=O)(=O)c1ccccc1	1060
NC(=O)c1cccc2cn(-c3ccc([C@@H]4CCCNC4)cc3)nc12	630
CCC1(O)CCOC2(CCN(C(=O)CC3CCCC3)CC2)C1 (stereo not given)	748
Cc1cc(C)c(S(=O)(=O)N2CC(c3nc(Cc4ccccc4)no3)C2)c(C)c1	1190
CC(=O)N1CCc2cc(N3CC(C(=O)Nc4ccc(F)cc4)CC3=O)ccc21 (stereo not given)	699
Cc1cccc(-n2ncc3c(NCCCN4CCCC4=O)ncnc32)c1	682
CNC(=O)c1ccc(-n2nc(Sc3ccc(OC)cc3)ccc2=O)cc1	702
COc1ccc(NC(=O)C2c3cc(OC)c(OC)cc3C(=O)N(C)C2c2cccnc2)cc1Cl (stereo not given)	660

SMILES	RP-LC retention time [s]
O=C(NCc1ccccn1)c1c(-c2ccccc2)nnc2ccccc12	609
O=C(NCc1ccco1)c1ccc2c(c1)CCCN2S(=O)(=O)c1ccccc1	914
CCOC(=O)Cc1csc(NC(=O)C2CCN(C(C)=O)CC2)n1	631
Cc1nc2ccc(C(=O)NC3CCN(C)CC3)cc2nc1C	566
Cc1ccc(NC(=O)NC2CCN(c3ccc(F)cc3)C2=O)cc1F (stereo not given)	886
Cc1cccc(NC(=O)C(=O)NCCN2CCN(c3ccc(F)cc3)CC2)c1C	584
O=C(Nc1ccc(OCc2nnc(-c3ccccc3)o2)cc1)c1cnccn1	832
O=C(CCC[C@@H]1[C@H]2CCCN3CCC[C@@H](CN1C(=O)c1cccs1)[C@@H]23)NCC1CC1	586
CC(C)(C)NC(=O)CN1c2ccc(F)cc2-c2ccccc2S1(=O)=O	905
Cc1[nH]c(C)c(S(=O)(=O)N2CCC(C(=O)N3CCCCC3C)CC2)c1C(=O)N1CCCCC1 (stereo not given)	724
CCc1noc(NC(C)=O)c1-c1ccc(C)c(S(=O)(=O)Nc2cc(C)ccc2C)c1	900
Cc1ccc(NC(=O)c2[nH]c3cc(C)sc3c2CN(C)C)c(Cl)c1	708
Cc1ccc2nc(C(=O)N3CCC(C)CC3)cc(Nc3ccc(N(C)C)cc3)c2c1	745
CC(C)OCCCNC(=O)c1c2c(cn(-c3ccccc3)c1=O)C(=O)CC(C)(C)C2	878
Cc1cc(C)c(S(=O)(=O)N(Cc2ccsc2)Cc2ccccn2)c(C)c1	1030
CCOc1ccc(-c2noc(Cc3nnc(-c4ccc(F)cc4)o3)n2)cc1	1050
CCCCS(=O)(=O)c1cc2c(cc1NC(=O)c1cccc(C)c1)n(C)c(=O)n2C	981
CN1CCN(CCNC(=O)C2CCCN(c3ncnc4c3nc3n4CCCCC3)C2)CC1 (stereo not given)	570
CCc1nc(-c2csc(S(=O)(=O)N3CCCC(C(=O)NC4CCCCCC4)C3)c2)no1 (stereo not given)	1060
O=C(NCC1CCN(C(=O)c2cc3ccccc3o2)CC1)c1cc(-c2ccccc2)on1	903
CN(CC1(C)CCOCC1)S(=O)(=O)c1cc(F)ccc1F	614

Now from value to molecule:

RP-LC retention time [s]	SMILES
666	CCOC(=O)c1nc2ccccc2nc1N1CCN(c2ccccn2)CC1
688	Cc1ccc(C(=O)OCC(=O)c2ccc([N+](=O)[O-])cc2)o1
706	Cc1cc(C)n(Cc2ccc(C(=O)N3CCN(c4ccc(=O)n(-c5ccccc5)n4)CC3)o2)n1
640	Cc1cc(C(=O)N2CCOCC2)c2cc(Cl)ccc2n1
944	O=C(Nc1nnc(SCc2ccccc2F)s1)c1ccccc1C(F)(F)F
860	CCCNC(=O)c1cn(-c2cc(-c3nc(C(C)C)no3)ccn2)cn1
932	O=C(NC(C(=O)N1CCCc2ccccc21)c1ccccc1)c1cnccn1 (stereo not given)
744	Cc1ccc(Nc2c(-c3ccccc3O)nc3ncccn23)c(C)c1
883	Cc1ccccc1N1CCN(C(=O)c2cc(C)n3nccc3n2)CC1
638	CSc1cccc(NC(=O)N2CCN(C3=CC4=NC(C)CN4C=N3)CC2)c1 (stereo not given)
814	CCN(C(=O)C1CCCN1S(=O)(=O)c1cc2c(cc1C)NC(=O)C(C)O2)c1ccccc1 (stereo not given)
798	CC1=C(c2ccc(F)cc2)S(=O)(=O)N=C1N1CCC(C(=O)NC2CCCC2)CC1
606	CCC1CN(C(=O)N2CCC(C(=O)NCCN3CCN(C)CC3)CC2)c2ccccc2O1 (stereo not given)
776	CCC(=O)N1CCc2cc(N3CC(C(=O)NCc4cccc(Cl)c4)CC3=O)ccc21 (stereo not given)
545	CC(C)C(=O)NCCc1nc2cccnc2n1C
680	Cc1ccc(CNC(=O)c2cc(NC(=O)C(C)C)cc3nc(C)ccc23)cc1
629	O=C(Nc1cccc(C(F)(F)F)c1)N1CCN(c2cnn3c(C4CC4)nnc3c2)CC1
610	CC(C)n1c(CN2CCCC2)nc2cc(NC(=O)c3ccco3)ccc21
708	CC(C)NC(=O)CN1C(=O)CCSc2ccccc21
1080	O=S(=O)(NCc1nc(-c2ccc(-c3csc(C4CC4)n3)cc2)no1)c1ccc(F)cc1
621	NC(=O)C1CCN(C(=O)CSc2nnnn2-c2ccccc2)CC1
1040	C[C@H]1CN(C(=O)c2ccc(F)cc2F)C[C@@H]1c1nc(-c2ccccc2)no1
568	O=C(NCc1cccnc1)C1(c2ccc(F)cc2)CC1
808	O=C(NCc1ccc(F)cc1)C1CCc2nc(N3CCOCC3)ncc2C1 (stereo not given)

RP-LC retention time [s]	SMILES
1040	Cc1ccc(NC(=O)C2(C)Oc3cccnc3N(C(C)C)C2=O)c(C)c1 (stereo not given)
581	COc1ccc(-n2nc(C(N)=O)c(=O)cc2OC)cc1
866	CCOc1ccc(NC(=O)Cn2c(=O)n(-c3ccc(F)cc3)c(=O)c3c2cc(C)n3C)cc1
587	COc1ccc2[nH]c3c(c2c1)CCNC31CCN(Cc2ccc(F)c(F)c2)CC1
641	Cc1ccc(C(=O)N2CCCCC2c2nc(-c3cccnc3)no2)cn1 (stereo not given)
717	Cc1nc(CNC(=O)c2ccc(-c3noc(C4CC4)n3)cc2)no1
690	CCOc1c(C)cc(S(=O)(=O)NCC2(O)CCOCC2)cc1C
1030	O=C(NCCC1=CCCCC1)c1ccc(-c2nccnc2N2CCCC2)cc1
757	CC1CCN(c2ncc3c(n2)CCN(Cc2ccc(N(C)C)cc2)C3)CC1
599	Cc1cc(C(=O)N2CCCn3ccnc3C2C2CCCC2)on1 (stereo not given)
608	CN(C)C(=O)c1cn(C2CN(C(=O)c3cccc4[nH]ccc34)C2)nn1
626	CCOC(=O)c1ccccc1NC(=O)N1CCc2nc[nH]c2C1
730	CCCn1c(=O)sc2cc(S(=O)(=O)N3CCC(C(=O)NC)CC3)ccc21
615	Cc1ccc2c(Nc3cc(F)cc(F)c3)c(C(=O)N3CCCC3)cnc2n1
1120	CCCCn1cc(S(=O)(=O)N2CCN(c3ccc(F)cc3)CC2)c2cccnc21
719	COc1ccc(N2CCN(S(=O)(=O)c3cn(C)nc3C)CC2)cc1
678	COCCNC(=O)C1CCN(C(=O)Nc2ccc(NC(=O)Nc3ccccc3)cc2)CC1
772	O=C(c1cn(-c2cc(N3CCCCC3)ncn2)cn1)N1CCCC1
715	COc1cccc(CNC(=O)C2CCCN(c3nnc(C)c4c(C)n(-c5ccccc5)nc34)C2)c1 (stereo not given)
1220	Cc1cccc(Sc2nccnc2N2CCC(C(=O)NCCC3=CCCCC3)CC2)c1
778	O=C(N[C@H]1C[C@@H]2C[C@H]1N(C(=O)c1ccccc1C(F)(F)F)C2)c1ccccc1
710	CC(C)NC(=O)C1CCN(Cc2cc3ccccc3n2Cc2ccccc2)CC1
764	Cc1cc(Cl)ccc1NC(=O)Cn1ccc2sccc2c1=O
